The values below come from PubChem BioAssay (NCI).

The structures appear in SMILES notation.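 Tested at 5 concentrations; 48 h exposure; 96-well plates; endpoints linearly interpolated, else capped at highest concentration. GI50 = concentration required for 50% inhibition of growth. TGI: total growth inhibition.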 A value given as a limit tells only on which side of the number the result lay.

Test systems include T-47D breast; SK-OV-3 ovarian; SF-295 CNS; NCI-H460 lung; NCI/ADR-RES ovarian; RPMI-8226 leukemia; HS 578T breast; MOLT-4 leukemia; OVCAR-4 ovarian; OVCAR-3 ovarian.
Common to all, as to assay: NCI-60 cell line screen, 48 h

Regarding `CCCCCCCCCCCCCCCCSS(C)(=O)=O`, the TGI was 24.1 µM with T-47D breast; above 100 µM with SK-OV-3 ovarian; above 100 µM in the experiment on SF-295 CNS; above 75.2 µM in the experiment with NCI-H460 lung; 7.05 µM with NCI/ADR-RES ovarian; 14.1 µM in the experiment with RPMI-8226 leukemia. Also, the TGI in the experiment on HS 578T breast was above 100 µM; with MOLT-4 leukemia it was 6.77 µM; with OVCAR-4 ovarian, 54.7 µM; in the experiment on OVCAR-3 ovarian, 31.2 µM.
With `C=C(C)[C@@H]1CC[C@]2(C(=O)N3CCN(C)CC3)CC[C@]3(C)[C@H](CC[C@@H]4[C@@]5(C)C/C(=C/c6ccncc6)[C@H](O)C(C)(C)[C@@H]5CC[C@]43C)[C@@H]12`, the GI50 in the experiment with T-47D breast is 3.02 µM; in the experiment on SK-OV-3 ovarian, 12 µM; in the experiment with SF-295 CNS, 7200 nM; in the experiment on NCI-H460 lung, 3950 nM; in the experiment on NCI/ADR-RES ovarian, 4810 nM; with RPMI-8226 leukemia it was 3010 nM. The GI50 in the experiment on HS 578T breast was 11600 nM; in the experiment with MOLT-4 leukemia, 2360 nM; in the experiment on OVCAR-4 ovarian, 7.08 µM; in the experiment on OVCAR-3 ovarian, 4820 nM. The TGI with T-47D breast stood at 22.4 µM; with SK-OV-3 ovarian it was 96.5 µM; in the experiment with SF-295 CNS it was 25.5 µM; with NCI-H460 lung, 17 µM; with NCI/ADR-RES ovarian, 23.2 µM; in the experiment on RPMI-8226 leukemia, 17 µM. The TGI with HS 578T breast was above 100 µM; with MOLT-4 leukemia it was 11 µM; in the experiment with OVCAR-4 ovarian, above 100 µM; in the experiment on OVCAR-3 ovarian it was 17.2 µM.
As to `COc1ccc(-c2cc(=O)c3c(OC)c(O)c(OC)cc3o2)cc1`, the TGI is above 100 µM with T-47D breast; above 100 µM in the experiment on SK-OV-3 ovarian; above 100 µM in the experiment with SF-295 CNS; above 100 µM in the experiment on NCI-H460 lung; above 100 µM in the experiment on NCI/ADR-RES ovarian; 99.3 µM in the experiment on RPMI-8226 leukemia. Further, the TGI with HS 578T breast, in the experiment with MOLT-4 leukemia, with OVCAR-4 ovarian and with OVCAR-3 ovarian was above 100 µM throughout.
Turning to `CN(C)C(=O)C(NCCO)c1ccccc1` (stereo not drawn), the TGI in the experiment on T-47D breast is above 100 µM; in the experiment with SK-OV-3 ovarian it was above 100 µM; in the experiment with SF-295 CNS it was above 100 µM; in the experiment on NCI-H460 lung it was above 100 µM; with RPMI-8226 leukemia it was 59.7 µM; in the experiment with HS 578T breast, above 100 µM. For the same molecule, the TGI in the experiment on MOLT-4 leukemia, with OVCAR-4 ovarian and in the experiment on OVCAR-3 ovarian was above 100 µM throughout.
`COc1cc(-c2nn(-c3ccc(NC(=O)Nc4ccc(Cl)c(C(F)(F)F)c4)cc3)cc2-c2ccncc2)ccc1Cl`: the GI50 is 2.66 µM with T-47D breast; 2.53 µM in the experiment on SK-OV-3 ovarian; 1710 nM in the experiment on NCI-H460 lung; 2120 nM with NCI/ADR-RES ovarian; 1910 nM in the experiment on HS 578T breast; 2.34 µM in the experiment on OVCAR-4 ovarian. For the same molecule, in the experiment on OVCAR-3 ovarian, the GI50 was 1570 nM. Besides, the TGI is 7.37 µM with T-47D breast; 6.43 µM with SK-OV-3 ovarian; 3.62 µM with NCI-H460 lung; 7.85 µM in the experiment on NCI/ADR-RES ovarian; 4.96 µM with HS 578T breast; 8.45 µM in the experiment with OVCAR-4 ovarian. This molecule registered a TGI in the experiment on OVCAR-3 ovarian of 3.59 µM.
`COc1ccc(/C=C(/C(=O)N2CCN(c3ccc(C)cc3)CC2)c2cc(OC)c(OC)c(OC)c2)cc1N`: the GI50 in the experiment on SK-OV-3 ovarian is 0.755 µM; with SF-295 CNS, 287 nM; with NCI-H460 lung, 347 nM; with NCI/ADR-RES ovarian, 293 nM; with RPMI-8226 leukemia, 284 nM; in the experiment with HS 578T breast, 291 nM. The GI50 in the experiment on MOLT-4 leukemia was 437 nM; in the experiment on OVCAR-4 ovarian it was 3.21 µM; in the experiment on OVCAR-3 ovarian it was 239 nM. Also, the TGI with SK-OV-3 ovarian was above 100 µM; in the experiment on SF-295 CNS, above 100 µM; in the experiment on NCI-H460 lung it was above 44 µM; with NCI/ADR-RES ovarian it was 21.7 µM; in the experiment with RPMI-8226 leukemia it was above 33.7 µM; in the experiment with HS 578T breast, above 100 µM. The TGI was above 100 µM in the experiment with MOLT-4 leukemia, above 100 µM in the experiment with OVCAR-4 ovarian and 0.921 µM with OVCAR-3 ovarian.
On to `N#Cc1c(N)n(C2OC(CO)C(O)C2O)c2ncnc(N)c12` (stereo not drawn), for which the TGI with T-47D breast amounted to 0.221 µM; in the experiment with SF-295 CNS, 2.45 µM; in the experiment on NCI/ADR-RES ovarian, 0.137 µM; with RPMI-8226 leukemia it was 3.59 µM; with HS 578T breast, 2.16 µM; with MOLT-4 leukemia it was 0.163 µM. The TGI in the experiment on OVCAR-4 ovarian was above 100 µM; with OVCAR-3 ovarian, 0.156 µM.
As to `COc1ccc(Nc2[nH]n(C3=Nc4ccccc4Sc4ccccc43)c(=O)c2C#N)cc1`, the GI50 with T-47D breast was 0.696 µM; in the experiment with SK-OV-3 ovarian it was 5.9 µM; in the experiment with SF-295 CNS, 560 nM; in the experiment on NCI-H460 lung it was 1950 nM; in the experiment on NCI/ADR-RES ovarian, 1430 nM; in the experiment on RPMI-8226 leukemia, 1590 nM. Further, the GI50 in the experiment with HS 578T breast is 1980 nM; in the experiment with OVCAR-4 ovarian, 0.803 µM; in the experiment on OVCAR-3 ovarian, 1780 nM. Moreover, the TGI is 9.22 µM in the experiment with T-47D breast; 54.1 µM with SK-OV-3 ovarian; 4.34 µM in the experiment with SF-295 CNS; 12 µM in the experiment on NCI-H460 lung; 6.64 µM in the experiment with NCI/ADR-RES ovarian; above 100 µM with RPMI-8226 leukemia. For the same molecule, the results for the TGI in the experiment with HS 578T breast, in the experiment with OVCAR-4 ovarian and in the experiment on OVCAR-3 ovarian were above 100 µM, above 100 µM and 8.64 µM, respectively.
In the case of `N=C(N)c1ccc(CS(=O)(=O)F)cc1`, the GI50 is above 100 µM in the experiment with T-47D breast; above 100 µM in the experiment with SK-OV-3 ovarian; above 100000 nM in the experiment with SF-295 CNS; above 100000 nM in the experiment with NCI-H460 lung; above 100000 nM in the experiment with NCI/ADR-RES ovarian; above 100000 nM in the experiment on HS 578T breast. For the same molecule, the figures for the GI50 in the experiment with MOLT-4 leukemia, in the experiment on OVCAR-4 ovarian and in the experiment with OVCAR-3 ovarian were above 100000 nM, above 100 µM and above 100000 nM, respectively. In addition, the TGI in the experiment on T-47D breast, with SK-OV-3 ovarian, in the experiment with SF-295 CNS, with NCI-H460 lung, in the experiment with NCI/ADR-RES ovarian and in the experiment with HS 578T breast was above 100 µM each time. Further, the TGI in the experiment with MOLT-4 leukemia, in the experiment with OVCAR-4 ovarian and in the experiment with OVCAR-3 ovarian was above 100 µM each time.
As to `CCCCCCCCCCCCCCCCCc1cc(Cl)nc(Cl)n1`, the TGI in the experiment on SK-OV-3 ovarian, in the experiment on SF-295 CNS, in the experiment on NCI-H460 lung, in the experiment with NCI/ADR-RES ovarian, in the experiment on RPMI-8226 leukemia and in the experiment with HS 578T breast was above 100 µM throughout. In addition, the TGI in the experiment on MOLT-4 leukemia, in the experiment on OVCAR-4 ovarian and with OVCAR-3 ovarian was above 100 µM each time.
On to `COc1ccc(NC(=O)COc2ccccc2)c(C(N)=O)c1`, for which the GI50 is 3.35 µM with SK-OV-3 ovarian; 644 nM with SF-295 CNS; 605 nM with NCI-H460 lung; 574 nM in the experiment with NCI/ADR-RES ovarian; 1930 nM with RPMI-8226 leukemia; 871 nM in the experiment with HS 578T breast. Also, the GI50 in the experiment on MOLT-4 leukemia is 2670 nM; in the experiment on OVCAR-4 ovarian it was above 44.8 µM; in the experiment with OVCAR-3 ovarian, 403 nM. Also, the TGI in the experiment with SK-OV-3 ovarian is above 100 µM; with SF-295 CNS it was 16.5 µM; with NCI-H460 lung, above 56.7 µM; with NCI/ADR-RES ovarian, 11.9 µM; in the experiment with RPMI-8226 leukemia, above 55.2 µM; with HS 578T breast, 97.1 µM. Also, the TGI was above 100 µM in the experiment with MOLT-4 leukemia, above 100 µM with OVCAR-4 ovarian and 2.88 µM with OVCAR-3 ovarian.
In the case of `C=CC1CC12C(=O)C1OC2(C)C2C(=O)c3c(O)cccc3C(=O)C12` (stereo not drawn), the GI50 with T-47D breast was 31.2 µM; with SK-OV-3 ovarian, 94.5 µM; in the experiment with NCI-H460 lung, 33800 nM; in the experiment on NCI/ADR-RES ovarian, 27900 nM; in the experiment with HS 578T breast, 21800 nM; with MOLT-4 leukemia, 23600 nM. The TGI with T-47D breast was above 100 µM; in the experiment with SK-OV-3 ovarian, above 100 µM; in the experiment on NCI-H460 lung it was above 100 µM; in the experiment on NCI/ADR-RES ovarian it was 84.1 µM; with HS 578T breast, 88.3 µM; with MOLT-4 leukemia it was above 100 µM.
As for `NNC(=O)C(O)C(O)C(O)CO` (stereo not drawn), the TGI in the experiment on T-47D breast, with SK-OV-3 ovarian, in the experiment with SF-295 CNS, with NCI-H460 lung, in the experiment with NCI/ADR-RES ovarian and in the experiment on RPMI-8226 leukemia was above 100 µM each time. Moreover, the TGI in the experiment on HS 578T breast, in the experiment on OVCAR-4 ovarian and in the experiment on OVCAR-3 ovarian was above 100 µM each time.
With `O=C1/C(=N/N=C(c2ccccc2)c2ccccc2)c2ccccc2-c2ccccc21`, the TGI in the experiment with T-47D breast, with SK-OV-3 ovarian, in the experiment with SF-295 CNS, with NCI-H460 lung, with NCI/ADR-RES ovarian and in the experiment with HS 578T breast was above 100 µM throughout. Moreover, the TGI in the experiment on MOLT-4 leukemia, with OVCAR-4 ovarian and in the experiment on OVCAR-3 ovarian was above 100 µM throughout.
Take `COc1ccc(-c2cnc(SCC(=O)c3c(C)n(C)n(-c4ccccc4)c3=O)n2-c2ccc(OC)cc2)cc1`: the GI50 in the experiment on T-47D breast is above 50 µM; with SF-295 CNS, above 50000 nM; with NCI-H460 lung, 43600 nM; in the experiment on NCI/ADR-RES ovarian, above 50000 nM; in the experiment with RPMI-8226 leukemia, 6870 nM; with HS 578T breast, 42600 nM. Further, the GI50 in the experiment on MOLT-4 leukemia was 12600 nM; in the experiment with OVCAR-3 ovarian, above 50000 nM. Moreover, the TGI with T-47D breast, in the experiment on SF-295 CNS, with NCI-H460 lung, in the experiment on NCI/ADR-RES ovarian, in the experiment on RPMI-8226 leukemia and with HS 578T breast was above 50 µM each time. Further, the TGI with MOLT-4 leukemia and in the experiment on OVCAR-3 ovarian was above 50 µM throughout.
